Consider 17 compounds from PubChem BioAssay (NCI).

Structures are written as SMILES.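 In this assay, cells in 96-well plates receive the compound at five concentrations for 48 hours. Endpoints are linearly interpolated between the surrounding concentrations. Here, GI50 denotes the concentration required for 50% inhibition of growth. Definition used: TGI = concentration required for complete inhibition of growth.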

What all share (test): NCI tumour cell line growth inhibition, 48 h
Experiment [1] relates to SN12C renal.
Experiment [2] relates to CCRF-CEM leukemia.
Experiment [3] has as its system U251 CNS.
Experiment [4] concerns HCT-116 colon.
Experiment [5] has as its system UACC-257 melanoma.
For experiment [6], the system named is SF-295 CNS.
The test system of experiment [7] is IGROV1 ovarian.
The subject of experiment [8] is HL-60(TB) leukemia.
The subject of experiment [9] is RXF 393 renal.

In the case of `NNC(=O)c1cnn(-c2ccnc3c(C(F)(F)F)cccc23)c1N`, the GI50 in experiment [1], in experiment [2], in experiment [3], in [4], in experiment [5] and in experiment [6] was more than 100 µM each time. Further, the GI50 in experiment [7], in experiment [8] and in experiment [9] was more than 100 µM throughout. In addition, the TGI in [1], in experiment [2], in experiment [3], in experiment [4], in [5] and in [6] was more than 100 µM throughout. In addition, the TGI in experiment [7], in experiment [8] and in experiment [9] was more than 100 µM throughout.

`c1ccc(-c2nnc(-c3nn(-c4ccccc4)c4nc5ccccc5nc34)o2)cc1`: the TGI in experiment [1] is more than 100 µM; in [2], 85.5 µM; in [3], more than 100 µM; in experiment [4], more than 100 µM; in experiment [5], more than 100 µM; in experiment [6] it was more than 100 µM. Besides, the TGI in experiment [7] was more than 100 µM; in experiment [8], 85.2 µM; in experiment [9], 41.4 µM.

For the compound `CC1=C(CCCOC(=O)NCCCl)C2=C(C)C3(CC3)[C@@](C)(O)C(=O)C2=C1`, the GI50 in experiment [1] was 3.84 µM; in experiment [2], 9.4 µM; in [3] it was 3.97 µM; in [4] it was 2.96 µM; in [5], 3.91 µM; in [6], 2.53 µM. For the same compound, the GI50 in [7] is 1.77 µM; in experiment [8], 4.57 µM. Further, the TGI in [1] is more than 100 µM; in experiment [2], more than 100 µM; in [3], more than 100 µM; in experiment [4], more than 100 µM; in experiment [5], more than 100 µM; in [6], 7.33 µM. Also, the TGI in [7] is 17.6 µM; in experiment [8] it was more than 100 µM.

`CCCCCCCCCCCCOC1C(CNCC2OC3OC(C)(C)OC3C2NC(=O)Nc2ccc(C(=O)OCC)cc2)OC2OC(C)(C)OC21` (centres undefined): the GI50 in experiment [1] is 1.96 µM; in experiment [3], 1.94 µM; in experiment [4] it was 1.72 µM; in experiment [5] it was 5.05 µM; in experiment [6] it was 6.31 µM; in experiment [7] it was 2.7 µM. Also, the GI50 was 2.65 µM in experiment [8] and 2.73 µM in [9]. For the same compound, the TGI in experiment [1] amounted to 3.74 µM; in [3], 3.71 µM; in experiment [4] it was 3.14 µM; in experiment [5], 16.2 µM; in experiment [6] it was 20 µM; in experiment [7], 7.37 µM. The TGI was 5.9 µM in experiment [8] and 4.8 µM in [9].

With `O=C(N/N=C/c1cccc(O)c1O)N/N=C/c1cccc(O)c1O`, the TGI in experiment [1] was more than 100 µM; in experiment [2], 38.5 µM; in experiment [3], more than 100 µM; in experiment [4], 39.8 µM; in experiment [5], 62.9 µM; in [6] it was 46.2 µM. Moreover, the TGI is more than 100 µM in experiment [7] and 86.4 µM in experiment [9].

With `O=C1NC(=O)C2C(=O)NC(=O)C1C2(c1ccccc1)c1ccc(Cl)cc1` (centres undefined), the TGI in [1], in experiment [2], in [5], in experiment [6], in experiment [7] and in experiment [8] was more than 100 µM throughout. Moreover, the TGI in experiment [9] is more than 100 µM.

As for `C[C@]12CCC(=O)C=C1CC[C@@H]1C2CC[C@]2(C)NC(=O)C(C#N)CC12` (some centres undefined), the TGI in [2], in experiment [3], in [4], in experiment [5], in experiment [6] and in experiment [7] was more than 100 µM in each case. For the same compound, the TGI in [8] and in [9] was more than 100 µM in each case.

As for `COc1ccc(N=Cc2cc(OC)c(OC)c(OC)c2)cc1`, the TGI in [1], in experiment [2], in experiment [3], in experiment [4], in experiment [5] and in experiment [7] was more than 100 µM in each case. In [9], this compound had a TGI of more than 100 µM.

Regarding `CC(=O)/C(=C/n1c(=S)sc2ccccc21)C(=O)Nc1ccccc1C`, the TGI in experiment [1], in experiment [3], in experiment [4], in experiment [5], in experiment [6] and in [7] was more than 100 µM throughout. The TGI in experiment [8] and in experiment [9] was more than 100 µM each time.

Turning to `O=C1CC[C@H]2CNC(=O)C[C@H]2C1`, the TGI in experiment [1], in [2], in [3], in [4], in experiment [5] and in [6] was more than 100 µM throughout. The TGI in [7], in experiment [8] and in [9] was more than 100 µM each time.

On to `O=C1c2ccccc2-c2c1c1cc3c(cc1c(=O)n2CCCCl)OCO3`, for which the GI50 in [1] was 21.8 µM; in experiment [2], 66.1 µM; in experiment [3], 22.8 µM; in experiment [4], 17.7 µM; in [6] it was 16.2 µM. For the same compound, the TGI was 77.6 µM in experiment [1]; more than 100 µM in [2]; 67.4 µM in experiment [3]; 90.1 µM in experiment [4]; 46.8 µM in experiment [6].

On to `Cc1cccc(C(C)(C)C)c1NC(=O)C(=O)Cc1nc2ccccc2s1`, for which the TGI in [1], in experiment [3], in experiment [4], in experiment [5], in experiment [6] and in experiment [7] was more than 100 µM each time. In [8], this compound came in with a TGI of more than 100 µM.

`Cn1c(-c2nonc2N)nc2cnccc21`: the GI50 in experiment [1], in experiment [2], in experiment [3], in [4], in experiment [5] and in experiment [6] was more than 25 µM in each case. For the same compound, the GI50 in experiment [7] was more than 25 µM; in experiment [8], more than 25 µM; in experiment [9] it was more than 20.6 µM. The TGI in experiment [1], in [2], in experiment [3], in experiment [4], in experiment [5] and in experiment [6] was more than 25 µM throughout. The TGI in experiment [7], in experiment [8] and in experiment [9] was more than 25 µM throughout.

Turning to `O=C(O)c1cc(S(=O)(=O)N=NC=C2c3ccccc3N(O)c3ccccc32)ccc1O`, the TGI in [1] was more than 100 µM; in [2] it was 86 µM; in experiment [3] it was more than 100 µM; in [4] it was 27.9 µM; in experiment [5] it was 88.2 µM; in [6], 20.1 µM. The TGI in [7] amounted to 83.1 µM; in [8], 23.7 µM.

With `Cc1c(N2C(=O)/C(=C\c3ccccc3O)N=C2c2ccccc2)c(=O)n(-c2ccccc2)n1C`, the GI50 in experiment [1] was more than 100 µM; in [3], 40.2 µM; in [4] it was 51.6 µM; in experiment [5], more than 100 µM; in [6], 26.2 µM; in [7] it was 23.8 µM. Moreover, the GI50 in experiment [8] was more than 100 µM; in experiment [9], 53.8 µM. The TGI is more than 100 µM in experiment [1]; more than 100 µM in experiment [3]; more than 100 µM in experiment [4]; more than 100 µM in experiment [5]; 78.6 µM in [6]; more than 100 µM in experiment [7]. Besides, the TGI in experiment [8] and in experiment [9] was more than 100 µM in each case.

As to `O=C(/C=C(\[O-])c1ccccc1)CCCCCCC(=O)/C=C(\[O-])c1ccccc1.O=C(/C=C(\[O-])c1ccccc1)CCCCCCC(=O)/C=C(\[O-])c1ccccc1.O=C(/C=C(\[O-])c1ccccc1)CCCCCCC(=O)/C=C(\[O-])c1ccccc1.[La+3].[La+3]`, the GI50 in [1], in experiment [3], in experiment [4], in [5], in experiment [7] and in [8] was more than 50 µM each time. Besides, in [9], the GI50 was more than 50 µM. Further, the TGI in experiment [1], in experiment [3], in experiment [4], in experiment [5], in [7] and in experiment [8] was more than 50 µM throughout. The compound further yielded a TGI in experiment [9] of more than 50 µM.

For `CNC(=O)c1cc(Oc2ccc3c(c2)sc2nc(-c4ccc(N)cc4)cn23)ccn1`, the GI50 was 0.759 µM in experiment [1]; 0.2 µM in [2]; 0.194 µM in experiment [3]; 0.211 µM in experiment [4]; 0.104 µM in experiment [6]; 0.609 µM in experiment [7]. The values for the GI50 in [8] and in experiment [9] were 0.108 µM and 0.297 µM, respectively. In addition, the TGI in experiment [1], in experiment [2], in [3], in [4], in experiment [6] and in [7] was more than 100 µM in each case. The compound further had a TGI in experiment [9] of more than 100 µM.
